Measurements as given in publication PMC6630718, “Discovery of Novel UV-Filters with Favorable Safety Profiles in the 5-Arylideneimidazolidine-2,4-dione Derivatives Group” (Molecules, 2019).
Like-named read-outs stand apart in the source and are kept apart here.

Legend:
[1] = In vitro stability in mouse liver microsomes; type: in vitro ADME; details: mouse, mouse liver microsomes
Protocol: Mouse liver microsomes (MLMs) were used to investigate the phase I metabolism of selected compounds (2c, 2d, 3b, 4g, 5a) and the reference substance BP-2. Samples composed of test compound (20 µM), MLMs (0.8 mg/mL) and potassium phosphate buffer (100 mM, pH 7.4) were preincubated prior to addition of NADPH-regenerating system. NADPH-regenerating system contained NADP, glucose-6-phosphate, glucose-6-phosphate dehydrogenase and potassium phosphate buffer (100 mM, pH 7.4). Control incubations were performed in the absence of the NADPH-regenerating system and in case of esters (2c, 2d, 3b and 4g) without the mouse liver microsomes solution to determine spontaneous hydrolysis. Incubations were conducted at 37 °C for at least 15 min up to 60 min. The reactions were stopped by the addition of 250 μL ice-cold methanol containing internal standard PTX (20 μM). The mixture was then centrifuged. Supernatant analysis was performed using UPLC/MS (Waters Corporation). The assays were repeated two times. The in vitro half times (t1/2) for test compounds were determined from the slope of the linear regression of ln % parent compound remaining versus incubation time. The calculated t1/2 was incorporated into the following equation to obtain intrinsic clearance: (Clint) = (volume of incubation [µL]/ protein in the incubation [mg]) × 0.693 / t1/2 [74].

[2] = Ultraviolet spectroscopy in methanol solutions; type: physicochemical; details: for Absorption Range: scan range 290–400 nm
Protocol: Spectra with a scan range of 290–400 nm were recorded in 50 or 25 μM methanol solutions, in 1 cm path length, 1.5 mL quartz cuvettes on a U-2800 double beam spectrophotometer (Hitachi, Tokyo, Japan) controlled by UV Solution version 2.2 software. The molar extinction coefficient at maximum absorption (εmax) of tested compounds was determined in methanol as the slope of the linear regression of absorbance vs. concentration of tested compound (from 10 to 50 μM or 2.5 to 30 μM).

[3] = Photostability in methanol solutions (solar light simulator); type: physicochemical; parameters: λmax pre-irradiation: unit not given beside the values; details: methanol solution; for % of initial AUC post-irradiation / λmax post-irradiation: 1h irradiation at 500 W/m2
Protocol: (§1) The photostability evaluation of compounds was performed both in methanol solutions and in macrogol formulations. Irradiation of samples according to previous studies was conducted for 1 h at 500 W/m^2 (cumulative dose of ultraviolet radiation 218 kJ/m^2) with solar light simulator (Suntest CPS+, Atlas, Linsengericht, Germany) equipped with an optical filter cutting off wavelengths shorter than 290 nm and IR-block filter to neutralize thermal effects. The UV absorption spectrum of the samples were analysed post-irradiation and compared with pre-irradiation results. UPLC-MS/MS analyses were also performed.
(§2) Methanol solutions were tested at concentration 25 or 50 µM in quartz cuvettes with the PTFE stopper to prevent evaporation or leaking of the solvent. Macrogol formulations (2% w/w) were tested on PMMA plates (1.3 mg/cm^2). After post-irradiation measure of UV absorption, exposed and unexposed plates were washed with 5 mL of methanol, then mixtures were filtered and analysed by UPLC-MS/MS. All analyses were performed in duplicates.

[4] = Photostability in macrogol formulations on PMMA plates (solar light simulator); type: physicochemical; details: for decrease of AUC after irradiation: macrogol formulation F1; for percentage of photoproducts content: post-irradiation chromatograms; for new photoproduct (besides photoisomer), relative peak area: post-irradiation chromatogram
Protocol: After irradiation of thin layer of formulations applied on PMMA plates, their photoprotective parameters were determined and compared with the pre-irradiation results. The study gives an overview on functional photostability of the tested compounds. It is an important test, because the photostability of some compounds in low concentrated solutions may meaningfully differ from results obtained for higher concentrations used in sunscreen products. […] In the present study both UVB and UVA-absorbers were tested, so the changes in SPFin vitro, UVA PF and AUC after irradiation are taken into account as a measure of photostability.
as §1, §2

[5] = In vitro photoprotection study of 2% (w/w) macrogol formulations on PMMA plates
Source text: The composition of formulations and concentration of tested compounds were based on their limited solubility. N-monosubstituted compounds 2a–2e were insoluble at desirable concentrations in the typical solvents used in cosmetic formulations such as alcohols, triacetin, surfactants, and co-surfactants. To dissolve compounds 2a and 2b before incorporation to the formulation DMSO: Tween 20 (1:9 w/w) was used, for less soluble 2c–2e it was necessary to use DMSO alone as solvent. […] Thus the detailed composition of the formulations is as follows: F1–Tween 20 43.2%, PEG-400 25%, PEG-1500 25%, Triacetin 4.8%, tested compound 2%; F2–Tween 20 43.2%, PEG-400 25%, PEG-1500 25%, DMSO 4.8%, tested compound 2%; F3–PEG-400 25%, PEG-1500 25%, DMSO 48%, tested compound 2%. Considering the disadvantages of currently reported macrogol formulations and the low concentration achieved for the tested compounds (2%), we plan to work on cosmetic emulsions containing the most promising derivatives at higher concentrations as well as required excipients including preservatives, antioxidants, etc. This research will be carried out in the near future.
Tested compounds and commercial UV filters as reference standards were incorporated to a neutral macrogel formulation in the concentration of 2%. Prior to the incorporation, compounds 3a–3e and 4f–4h and reference UV-filters were dissolved in a triacetin:Tween 20 (1:9) solvent system. For compounds 2a–2e it was necessary to use DMSO. The final composition of the macrogol formulations is presented in the photoprotective activity section.
In vitro photoprotection study was performed according to EN ISO 24443:2012 [71] with slight modifications. Formulation with tested compound (32.5 mg) was applied on a polymethylmethacrylate plate (PMMA) with the application area 25 cm^2 and 5 µm roughness value to simulate the skin surface (Schonberg GmbH, Hamburg, Germany). As a reference a PMMA plate treated with approximately 15 µL of glycerin was used. Measurements were carried out by reflectance spectrophotometry with SPF-290AS Analyser (Solar Light Company, Glenside, PA, USA) equipped with integrating sphere controlled by WinSPF version X.X. software. For each sample two plates were prepared, absorbance measures were performed on 6 different positions of the plate from 290 to 400 nm with 1 nm steps. The results were expressed as an average of data from 12 scans.

[6] = after 1 h irradiation at 500 W/m^2, formulation F1
[7] = 2% (w/w) macrogol formulation F1 (Triacetin 4.8%)
[8] = 2% (w/w) macrogol formulation F1 (Tween 20, PEG-400, PEG-1500, Triacetin 4.8%)
[9] = after 1 h irradiation at 500 W/m^2, formulation F2 (DMSO 4.8%)
[10] = after 1 h irradiation at 500 W/m^2, formulation F3 (DMSO 48%)
[11] = 2% (w/w) macrogol formulation F2 (DMSO 4.8%)

SMILES	εmax [2]	λmax [2]	Absorption Range [2]	melting point	λmax pre-irradiation [3]	% of initial AUC post-irradiation [3]	λmax post-irradiation [3]	% of Initial AUC [4, 6]	% of Initial SPFin vitro [4, 6]	% of Initial UVA PF [4, 6]	UVA PF [5, 7]	UVA/UVB Ratio [5, 7]	λc (critical wavelength) [5, 7]	SPFin vitro [5, 8]	further results
O=C(O)CN1C(=O)N/C(=C\c2ccccc2)C1=O [Compound 5a, (Z)-2-(4-Benzylidene-2,5-dioxoimidazolidin-1-yl)acetic acid]	27310 M⁻¹ cm⁻¹	316 nm	290–346 nm	215 to 217 °C	–	–	–	–	–	–	–	–	–	–	half-life at 20 µM ([1]; pH 7.4, mouse liver microsomes 0.8 mg/mL, 20 µM compound, NADPH-regenerating system, 37 °C, read-out: t ½): 23.1 h; microsomal CLint at 20 µM ([1]; pH 7.4, mouse liver microsomes, calculated from t1/2): < 1 µL/min/mg; half-life at 20 µM ([1]; pH 7.4, mouse liver microsomes, read-out: t1/2): > 23 h
CCOC(=O)CN1C(=O)/C(=C/C=C/c2ccccc2)N(CC(=O)OCC)C1=O [Compound 4f, Diethyl 2,2′-((Z)-2,4-dioxo-5-((E)-3-phenylallylidene)imidazolidyne-1,3-diyl)diacetate]	41477 M⁻¹ cm⁻¹	354 nm	295–389 nm	99 to 100 °C	354	59.12%	354	27.92%	62.24%	25.98%	8.43 ± 1.35	2.58 ± 0.06	381 nm	2.51 ± 0.17	decrease of AUC after irradiation [3]: 40.9%; photostability (in words) ([4]; macrogol formulation): unsatisfactory; decrease of AUC after irradiation [4]: 72.1%; percentage of photoproducts content ([4]; macrogol formulation): 22.9%
CCOC(=O)CN1C(=O)/C(=C/c2ccccc2)N(CC(=O)OCC)C1=O [Compound 3a, Diethyl 2,2′-((Z)-4-benzylidene-2,5-dioxoimidazolidine-1,3-diyl)diacetate]	13980 M⁻¹ cm⁻¹	295 nm	290–335 nm	47 to 49 °C	295	122.34%	301	88.19%	83.31%	103.50%	1.29 ± 0.09	0.16 ± 0.02	331 nm	2.97 ± 0.45	hypsochromic shift of λmax compared to N-monosubstituted derivatives [2]: 21 nm
CCOC(=O)CN1C(=O)N/C(=C\c2ccc(OC)cc2)C1=O [Compound 2b, Ethyl (Z)-2-(4-(4-methoxybenzylidene)-2,5-dioxoimidazolidin-1-yl)acetate]	31920 M⁻¹ cm⁻¹	334 nm	290–372 nm	178 to 179 °C	334	95.67%	341	–	–	–	–	–	–	–	improvement of the functional photostability ([4]; DMSO in formulation reduced from 48 to 4.8%): 30.2%; % of Initial AUC [4, 9]: 59.55%; % of Initial SPFin vitro [4, 9]: 57.19%; % of Initial UVA PF [4, 9]: 54.31%; % of Initial AUC [4, 10]: 35.28%; % of Initial SPFin vitro [4, 10]: 36.51%; % of Initial UVA PF [4, 10]: 24.13%; decrease of tested parameters (SPFin vitro, UVA PF, AUC) after irradiation ([4]; formulation with DMSO 48% (F3), extreme values): 75.9%; SPFin vitro [5, 11]: 3.20 ± 0.07; UVA PF [5, 11]: 4.29 ± 0.11; UVA/UVB Ratio [5, 11]: 1.20 ± 0.00; λc (critical wavelength) [5, 11]: 363 nm
CCOC(=O)CN1C(=O)/C(=C/c2ccc(OCC)cc2)N(CC(=O)OCC)C1=O [Compound 3c, Diethyl 2,2′-((Z)-4-(4-ethoxybenzylidene)-2,5-dioxoimidazolidine-1,3-diyl)diacetate]	17010 M⁻¹ cm⁻¹	321 nm	290–367 nm	44 to 46 °C	321	119.42%	329	85.29%	88.73%	86.59%	2.46 ± 0.01	1.05 ± 0.03	370 nm	2.49 ± 0.08	new photoproduct (besides photoisomer), relative peak area ([4]; macrogol formulation): 2.8%
CCOC(=O)CN1C(=O)/C(=C/c2ccc(OC)cc2OC)N(CC(=O)OCC)C1=O [Compound 3d, Diethyl 2,2′-((Z)-4-(2,4-dimethoxybenzylidene)-2,5-dioxoimidazolidine-1,3-diyl)diacetate]	17310 M⁻¹ cm⁻¹	333 nm	290–374 nm	88 to 90 °C	333	111.55%	342	94.01%	89.92%	97.66%	2.35 ± 0.03	1.63 ± 0.01	383 nm	1.84 ± 0.02	new photoproduct (besides photoisomer), relative peak area ([4]; macrogol formulation): no additional peaks besides the photoisomer
CCOC(=O)CN1C(=O)/C(=C/C=C/c2ccccc2OC)N(CC(=O)OCC)C1=O [Compound 4h, Diethyl 2,2′-((Z)-4-((E)-3-(2-methoxyphenyl)allylidene)-2,5-dioxoimidazolidine-1,3-diyl)diacetate]	34987 M⁻¹ cm⁻¹	370 nm	290–400 nm	134 to 135 °C	370	98.55%	370	69.19%	82.22%	62.38%	4.28 ± 0.02	2.58 ± 0.01	389 nm	1.94 ± 0.04	decrease of AUC after irradiation [3]: 1.5%; decrease of AUC after irradiation [4]: 30.8%; percentage of photoproducts content ([4]; macrogol formulation): 11.0%
